Measured values reported in article PMC3724985, “Isolation, biochemical characterization, and cloning of a bacteriocin from the poultry-associated Staphylococcus aureus strain CH-91” (Applied Microbiology and Biotechnology, 2012).
In brackets after ≈: the same amount, converted by molar mass.

Experiments:
[1] = system: Bacillus licheniformis NCTC 7224; type: cell-based
Excerpt: (§1) S. aureus CH-91 was kindly provided by S. Takeuchi from Fukui Prefectural University, Japan (Takeuchi et al. [1999]). The strain has been deposited in the DSMZ collection under the number DSM 26258. Bacillus licheniformis NCTC 7224, Bacillus subtilis ATCC 6633, Lactococcus lactis subsp. lactis LOCK 0869, Micrococcus luteus strains DSMZ 20030 and CBM (clinical isolate), Sarcina lutea ATCC 9341, S. aureus strains ATCC 25923, M-122 (Polakowska et al. [2012]), Newman and RN4220, S. epidermidis ATCC 35347, Staphylococcus intermedius ATCC 29666, Staphylococcus pseudintermedius LMG 22219 (Devriese et al. [2005]), Staphylococcus saprophyticus ATCC 49453, Staphylococcus xylosus strains isolated from the skin of healthy chickens, Streptococcus mutans ATCC 25175, Streptococcus pneumoniae ATCC 49619, Escherichia coli K12 ATCC 10798, Klebsiella pneumoniae, Serratia marcescens, and Sphingomonas sp. AMC 3962 (Dziga et al. [2012]) were obtained from the collections of The Faculty of Biochemistry, Biophysics and Biotechnology, Jagiellonian University, Krakow, Poland. A list of strains used for assessment of the general occurrence of the bacteriocin gene is provided in the Electronic supplementary materials (ESM; Table S1). Gram-positive and Gram-negative bacteria were maintained at 37 °C in tryptic soy broth (TSB) and Luria-Bertani broth (both obtained from Sigma), respectively.
(§2) The bactericidal activity of BacCH91 was determined using the micro-dilution method in compliance with Clinical and Laboratory Standards Institute guidelines M7-A7 (CLSI [2006]). Briefly, the bacteria were either cultivated in cation-adjusted MHB to the early exponential phase or grown overnight on agar-solidified MHB supplemented with 2.5 % LHB in the case of Streptococcus spp. and L. lactis. Subsequently, the bacteria were diluted to 1 × 10^6 CFU/ml either in MHB or in MHB supplemented with 5 % LHB, in the case of the latter bacteria. Fifty-microliter portions of bacterial suspension were mixed with an equal volume of MHB containing serial twofold dilutions of bacteriocin. After overnight incubation at 37 °C, the optical density (OD) at 600 nm was measured. The MIC was defined as the minimum bacteriocin concentration for which the increase in OD was not observed compared to uninoculated broth.

[2] = system: Bacillus subtilis ATCC 6633; type: cell-based
Excerpt: as §1, §2

Klebsiella pneumoniae = type: cell-based
Excerpt: as §1, §2

Sarcina lutea ATCC 9341 = type: cell-based
Excerpt: as §1, §2

Serratia marcescens = type: cell-based
Excerpt: as §1, §2

[3] = system: Sphingomonas sp. AMC 3962; type: cell-based
Excerpt: as §1, §2

[4] = system: Staphylococcus aureus ATCC 25923; type: cell-based
Excerpt: as §1, §2

[5] = system: Staphylococcus aureus CH91; type: cell-based
Excerpt: as §1, §2

[6] = system: Staphylococcus aureus M-122; type: cell-based
Excerpt: as §1, §2

[7] = system: Staphylococcus aureus RN4220; type: cell-based; settings: Staphylococcus aureus RN4220, bacteriocin gene positive strain; micro-dilution, CLSI M7-A7, cation-adjusted MHB, overnight 37 °C, OD 600 nm
Excerpt: as §1, §2

[8] = system: Staphylococcus epidermidis ATCC 35347; type: cell-based
Excerpt: as §1, §2

[9] = system: Staphylococcus saprophiticus ATCC 49453; type: cell-based
Excerpt: as §1, §2

[10] = system: Staphylococcus xylosus kw 2,5; type: cell-based
Excerpt: as §1, §2

[11] = system: Streptococcus mutans ATCC 25175; type: cell-based
Excerpt: as §1, §2

staphopain C (StpC) = settings: 30 μM, 100 mM bis-Tris pH 6.4 or Tris–HCl pH 7.5 with 5 mM cysteine hydrochloride and 5 mM EDTA, 1:20 by weight, 1 h at 37 °C; radial diffusion assay and HPLC
Method: (§3) For pH, temperature, and protease resistance assays, the residual activity of BacCH91 was determined using the radial diffusion assay (Lemos Miguel et al. [2008]). In brief, plates were prepared containing 200× diluted overnight culture of S. lutea ATCC 9341 in TSB agar (1 %, w/v). Wells (2.4 mm diameter) were cut in the agar and filled with 10 μl of the BacCH91 preparation for testing. Following overnight incubation at 37 °C, the residual activity was measured as the diameter of inhibition zones.
(§4) We evaluated the susceptibility of BacCH91 to proteolysis by aureolysin; staphopains A, B, and C; V8 peptidase (Biocentrum); bovine alpha-chymotrypsin and TPCK-treated trypsin (Sigma); human elastase and cathepsin G (Biocentrum); pepsin from porcine gastric mucosa (Sigma); and proteinase K (A&A Biotechnology). […] The residual activity was determined with the radial diffusion assay using S. lutea as an indicator strain, and the bacteriocin molecule integrity was assessed using HPLC. […]

[12] = system: staphylococcal extracellular peptidases (aureolysin; staphopains A, B, and C; V8 peptidase); settings: 30 μM, pH 6.4 or pH 7.5/7.8, enzyme/bacteriocin 1:20 by weight, 1 h at 37 °C; radial diffusion assay and HPLC; triplicate
Method: as §3, §4

proteinase K = target: T1, proteinase K (Parengyodontium album, UniProt P06873); experiment: Susceptibility to proteolysis, proteinase K; type: in vitro ADME; settings: 30 μM, enzyme/bacteriocin 1:20 by weight, 1 h at 37 °C; radial diffusion assay and HPLC
T1 construct: purchased A&A Biotechnology
T1 sequence (P06873 106-384): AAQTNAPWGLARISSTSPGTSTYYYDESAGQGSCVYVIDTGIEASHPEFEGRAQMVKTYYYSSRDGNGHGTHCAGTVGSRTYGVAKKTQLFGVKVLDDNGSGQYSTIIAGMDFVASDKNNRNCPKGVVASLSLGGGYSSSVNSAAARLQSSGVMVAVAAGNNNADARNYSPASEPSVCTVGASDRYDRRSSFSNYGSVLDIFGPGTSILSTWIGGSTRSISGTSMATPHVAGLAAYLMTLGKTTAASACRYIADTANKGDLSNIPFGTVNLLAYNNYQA
Method: All of the above experiments were performed in triplicate. The final results are presented as means ± SD.

SMILES: C/C=C(\NC(=O)[C@H](CCCCN)NC(=O)CNC(=O)[C@@H]1CS[C@@H](C)[C@@H](NC(=O)[C@@H]2CSC[C@@H](NC(=O)/C(=C/C)NC(=O)[C@@H](N)[C@@H](C)CC)C(=O)N[C@@H](Cc3ccccc3)C(=O)N[C@@H]([C@@H](C)CC)C(=O)NCC(=O)N2)C(=O)N2CCC[C@H]2C(=O)NCC(=O)N1)C(=O)NCC(=O)N[C@@H]1CSC[C@@H]2NC(=O)[C@H](Cc3ccccc3)NC(=O)[C@@H](CS/C=C\NC2=O)NC(=O)[C@H](CC(N)=O)NC(=O)[C@H](Cc2ccccc2)NC1=O [BacCH91]
- MIC [1]: 1.8 µM (≈ 3.74 µg/mL)
- MIC [2]: 2.6 µM (≈ 5.4 µg/mL)
- MIC (Klebsiella pneumoniae): >100 µM
- MIC (Sarcina lutea ATCC 9341): 0.31 µM (≈ 0.644 µg/mL)
- MIC (Serratia marcescens): >100 µM
- MIC [3]: >100 µM
- MIC [4]: 6.0 µM (≈ 12.5 µg/mL)
- MIC [5]: 1.3 µM (≈ 2.7 µg/mL)
- MIC [6]: 4.0 µM (≈ 8.31 µg/mL)
- MIC [7]: 6.0 µM (≈ 12.5 µg/mL)
- MIC [8]: 1.6 µM (≈ 3.32 µg/mL)
- MIC [9]: 3.0 µM (≈ 6.23 µg/mL)
- MIC [10]: 1.5 to 2.0 µM
- MIC [11]: 2.0 µM (≈ 4.15 µg/mL)
- effect of StpC on BacCH91 (staphopain C (StpC)): not affected
- effect of staphylococcal peptidases on BacCH91 [12]: not affected
- effect of proteinase K on BacCH91 (proteinase K): unaffected
